Read-outs that look alike come from different tables or passages of the source.
Key:
[1] = tested on: human gastric cancer cell line NCI-N87; assay: MTT Cell Proliferation Assay in NCI-N87; type: cell-based
Experimental: To test the activities of tris(8-quinolinolato)gallium(III), ATCC's MTT Cell Proliferation Assay® was performed using human gastric cancer cell line NCI-N87 (differentiated carcinoma). Stock cultures were allowed to grow to 70-80% confluence for this study. The anti-proliferative activity of tris(8-quinolinolato)gallium(III), against the indicated cell line was evaluated in vitro using the ATCC's MTT Cell Proliferation Assay (Catalog No. 30-1010K). NCI-N87 was grown using RPMI1640 (Cell Gro 10-040-CV), with 1% of 1M HEPES, 1% sodium pyruvate, 1% of 45% glucose solution, 10% of heat-inactivated FBS and 1% of pen/strep/glutamine. NCI-N87 cell plates were seeded with 20E+03 cells/well and treated with tris(8-quinolinolato)gallium(III) at 1,000 μM, or a series of 4×dilutions thereof (250 μM, 62.5 μM, etc.). 100 μl of medium was removed from each well at 72 hours post-treatment and 10 μl MTT reagent was added to each well. The plates were incubated plate at 37° C. for 4 hours and then 100 μl of detergent was added. The plates were left overnight at room temperature in the dark and was read on a plate reader using SoftMax® Pro (version 5.2, Molecular Devices).
The absorbance data was analyzed as follows: Absorbance values were converted to Percent of Control and plotted against test agent concentrations for IC50 calculations using SoftMax® Pro (version 5.2, Molecular Devices). The plate blank signal average was subtracted from all wells prior to calculating the Percent of Control. Percent of Control values were calculated by dividing the absorbance values for each test well by the No Drug Control average (column 11 values; cells+vehicle control) and multiplying by 100. Plots of Compound Concentration versus Percent of Control were analyzed using the 4-parameter equation to obtain IC50 values and other parameters that describe the sigmoidal dose response curve.
The IC50 value for the test agents was estimated by curve-fitting the data using the following four parameter-logistic equation:
wherein “Top” is the maximal % of control absorbance (100%) (Value “A” in FIG. 1, 88.3), “Bottom” is the minimal % of control absorbance at the highest agent concentration (down to zero) (Value “D” in FIG. 1, 20.8), Y is the Percent of Control absorbance, X is the test agent Concentration, IC50 is the concentration of agent that inhibits cell growth by 50% compared to the control cells (Value “C” in FIG. 1, 8.42e+03), n is the slope of the curve (Value “B” in FIG. 1, 2.31).

[2] = tested on: human esophageal carcinoma cell line OE33; assay: MTT Cell Proliferation Assay in OE33; type: cell-based
Experimental: To test the activity of tris(8-quinolinolato)gallium(III), ATCC's MTT Cell Proliferation Assay® was performed using human esophageal carcinoma cell line OE33. Stock cultures were allowed to grow to 70-80% confluence for this study. The anti-proliferative activity of tris(8-quinolinolato)gallium(III) against the indicated cell line was evaluated in vitro using the ATCC's MTT Cell Proliferation Assay (Catalog No. 30-1010K). OE33 plates were seeded with 1,200 cells/well, and the cells were grown in RPMI1640 medium containing 1% (1M HEPES), 1% sodium pyruvate, 10% FBS and 1% penicillin/strep/glutamine. Cultures were maintained in a 37° C. humidified 5% CO2/95% air atmosphere. The cells were treated with tris(8-quinolinolato)gallium(III) at 1,000 μM, or a series of 4×dilutions thereof (250 μM, 62.5 μM, etc.). […] The plates were left overnight at room temperature in the dark and was read on a plate reader using SoftMax® Pro (version 5.2, Molecular Devices).
The absorbance data was analyzed as follows: Absorbance values were converted to Percent of Control and plotted against test agent concentrations for IC50 calculations using SoftMax® Pro (version 5.2, Molecular Devices). […] Percent of Control values were calculated by dividing the absorbance values for each test well by the No Drug Control average (column 11 values; cells+vehicle control) and multiplying by 100. […]

[3] = NCI-N87, four parameter-logistic fit

**Q.** What does the source list for `[Ga+3].[O-]c1cccc2cccnc12.[O-]c1cccc2cccnc12.[O-]c1cccc2cccnc12` [tris(8-quinolinolato)gallium(III)]?
**A.** growth inhibition in MTT assay (FIG. 1) ([1]; NCI-N87): dose-dependent growth inhibition; Bottom, minimal % of control absorbance at the highest agent concentration (Value "D" in FIG. 1) [1, 3]: 20.8 % of control; Top, maximal % of control absorbance (Value "A" in FIG. 1) [1, 3]: 88.3 % of control; IC50 ([1]; NCI-N87, four parameter-logistic fit, X axis of FIG. 1 in nM, read-out: IC50 (Value "C" in FIG. 1)): 8420 nM; IC50 ([1]; NCI-N87 cell line, MTT, 72 hours post-treatment, read-out: IC50 (concentration of agent that inhibits cell growth by 50% compared to the control cells)): 8420 nM; growth inhibition in MTT assay (FIG. 2) ([2]; OE33): dose-dependent growth inhibition; IC50 ([2]; OE33 cell line, MTT, 72 hours post-treatment, read-out: IC50 (concentration of agent that inhibits cell growth by 50% compared to the control cells)): 3.06 µM
